Laboratory results from ChEMBL document CHEMBL4330127, “Discovery of Novel Pyruvate Dehydrogenase Kinase 4 Inhibitors for Potential Oral Treatment of Metabolic Diseases” (J Med Chem, 2019).

Test system: HCT-116
Experiment: Induction of apoptosis in human HCT116 cells assessed as early apoptotic cells at 10 uM after 24 hrs by Annexin V/propidium iodide staining based flow cytometry (reference value: 4.36%)
Format: functional

With `Cl.O=C1c2ccccc2C(=O)c2c1cccc2-c1cnn(C2CCNCC2)c1` the Activity was 2.9%.
